Values of other authors in patent publication US20110245279A1, “PREDICTIVE MARKER FOR EGFR INHIBITOR TREATMENT” (priority 2007, published 2011).
Where two headings read alike, the source gives them in different places. Each block holds one compound with its values, some of them ahead of it.

How the values were obtained:
[1] = patients with cancer receiving the 150 mg/day dose
NSCLC [2] = settings: single agent; NSCLC patients for whom standard therapy for advanced disease has failed
NSCLC [3] = tested on: NSCLC
[4] = randomized phase III trial, second line therapy of NSCLC

drug levels in plasma [1]: > 500 ng/mL
Structure (SMILES): C#Cc1cccc(Nc2ncnc3cc(OCCOC)c(OCCOC)cc23)c1 [Tarceva, erlotinib]
survival (NSCLC [2]): significantly prolongs and improves the survival

Structure (SMILES): CC(=O)O[C@@]12CO[C@@H]1C[C@H](O)[C@@]1(C)C(=O)[C@H](O)C3=C(C)[C@@H](OC(=O)[C@H](O)[C@@H](NC(=O)OC(C)(C)C)c4ccccc4)C[C@@](O)([C@@H](OC(=O)c4ccccc4)[C@H]21)C3(C)C [docetaxel]
survival (NSCLC [3]; second line vs best supportive care, after cisplatin-based first-line regimens had failed): improved survival

Structure (SMILES): Nc1nc2[nH]cc(CCc3ccc(C(=O)N[C@@H](CCC(=O)O)C(=O)O)cc3)c2c(=O)[nH]1 [pemetrexed]
efficacy compared with docetaxel (NSCLC [3]; [4]): clinically equivalent efficacy | side effects compared with docetaxel (NSCLC [3]; [4]): significantly fewer side effects

Structure (SMILES): CCOC(=O)c1ccc(C#Cc2ccc3c(c2)C(C)(C)CCS3)nc1 [tazarotene]
expression of RARRES1 gene (RARRES1 gene): up regulated
